Experimental data published in patent publication US11806351B2, “Use of coenzyme factor for activation of ATP production in cell” (TERA STONE Co., Ltd, priority 2018, dated 2023).
Like-named read-outs stand apart in the source and are kept apart here.

Experiments:
[1] = lipophilicity, hydrophobicity and stability; assay type: physicochemical
[2] = system: human glioma U251 cells (Sig1-R transfected cells); test: intracellular ATP concentration in human glioma U251 cells; assay type: cell-based
Description: To cultured human glioma US251 cells (Sig1-R transfected cells) were added Specimens 1 and 2, respectively and intercomparison was performed between intracellular ATP concentration after addition and that without addition (Cont.). […] It is to be noted that fluorescence measurement was performed 6 hours after the administration of the specimens.

[3] = system: mitochondrial Ca^2+ concentration in cerebral cortex and hippocampal neurons; test: K+ depolarization-induced mitochondrial Ca2+ increase in brain slices after intraperitoneal administration; assay type: in vivo, C57BL/6N mice
Description: One of adult C57BL/6N mice (from 10 to 17 weeks old, weight: from 28 to 31 g) was intraperitoneally administered with physiological saline (Control) and the other one with Specimen 3 (10 μg/kg). After 22 hours, a thin brain slice preparation of each mouse including the cortex and the hippocampus was made. Depolarization of a cellular membrane was caused by the addition of 80 mM KCl (80K) to an extracellular fluid and an increase in mitochondrial Ca^2+ concentration resulting therefrom was measured by a fluorescent method with Rhod-2 (Note 1). Positive participation of Specimen 3 to the ATP activity in mitochondria was indirectly verified (Note 3) by using, as an index, how the Ca^2+ concentration to be increased by 80K (Note 2) is suppressed by Specimen 3 in the brain slice.
(Note 1) Rhod-2: Ca^2+ fluorescent dye selectively incorporated in mitochondria
(Note 2) The depolarization of the neuronal membrane by 80K occurs due to both the flow of Ca^2+ from the outside to the inside of the cell and the release of Ca^2+ from an intracellular Ca store. The free Ca^2+ which has increased in the cell easily enters the mitochondria, an intracellular independent organ.
(Note 3) The free Ca^2+ which has increased in the neuronal cytoplasm due to 80K stimulation-induced depolarization speedily and immediately transmits into the mitochondria from the cytoplasm. A decrease in the mitochondrial free Ca^2+ concentration caused by the specimen occurs because the free Ca^2+ is scooped out of the cell by an outward Ca pump present in the neuron cytoplasm membrane or adsorption and fixing to a portion inside the mitochondria. Energy for it is supplied from ATP produced in the mitochondria. Based on the results thus obtained, intraperitoneally injected Specimen 3 passes from the blood to glia (astrocyte) cells and is then, incorporated in the mitochondria in the cerebral cortex or hippocampal neuron, by which ATP production in the mitochondria is activated and neurons are activated. […]
Fluorescence measurement results of a mitochondrial Ca^2+ increase are plotted along the ordinate.

[4] = system: hippocampal neurons; test: number of branches of hippocampal neuron dendrite, Specimens 5 to 11; assay type: cell-based, ICR mouse; details: 0.3 μM added once on culture day 1; MAP2 antibody culture day 4
Description: Hippocampal neurons were collected from the juvenile (Day 0 after birth) ICR mouse brain and cultured on a culture dish.
Each specimen was added once to the cells in the initial growth stage (on culture day 1); the resulting cells were immunostained with a MAP2 antibody three days later (on culture day 4), and the number of branches of the dendrite was quantified.
The measurement was performed by drawing 20 μm to 100 μm concentric circles (not shown) at an interval of 10 μm with a soma as a center and counting the number of dendrites crossing the circles.
A line graph of the number of dendrite crossings counted for each distance from the soma was drawn and a Student's t-test, paired (t-test, two tailed distribution) was carried out using an area under the line graph (Area under the Curve: AUC).
When the number of cases of a specimen was sufficient, the test was performed while eliminating the maximum and minimum values. The concentrations of the specimens to be added were each 0.3 μM.

[5] = cited from earlier work
[6] = system: cytoplasmic calcium concentration; test: cytoplasmic calcium concentration in brain slice preparations exposed to 80K ACSF, 24 h after subcutaneous administration; assay type: in vivo, mouse (C57B/6NL)
Description: (§1) Formation of brain slice preparation and measurement of calcium concentration: Used was a whole brain half-cut preparation obtained by cutting a whole brain slice (300 μm) of a mouse (C57B/6NL), pretreated with Specimen 1 for 24 hours by subcutaneous administration, at a median line. […] The resulting preparation was placed in a chamber provided on a stage of an inverted fluorescence microscope (Olympus IX71), covered with a piece of black cotton, fixed with a platinum ring, and refluxed (70 ml/hr) in ACSF aerated with 95% O2 and 5% CO2. A fluorescent image of the preparation was acquired using a 4× objective lens and respective images of the hippocampal ventral part and cerebral cortex temporal region were obtained in one screen. For the measurement of a mitochondrial calcium concentration, a change in intensity of red fluorescence (>600 nm) caused by excitation light at 580 nm was determined and for the measurement of a cytoplasmic calcium concentration, a ratio of fluorescence (>500 nm) between excitation at 360 nm and that at 380 nm was determined. A hippocampal CA1 site and a cerebral cortex were used as two regions of interest (ROI).
(§2) In water was dissolved β-NMN to give a 10 mg/kg, 30 mg/kg, or 100 mg/kg solution; Specimen 1 was dissolved in an alcohol to give a solution of 1 mg/ml and then the resulting solution was diluted with water to give a 0.01 mg/kg, 0.1 mg/kg or 1.0 mg/kg solution; and they were subcutaneously administered to mice 24 hours before the formation of the preparation (0.1 ml/10 g).
(§3) In the present test, an operation of exposing the brain preparations formed from mice administered with two drugs having respective concentrations to isotonic 80 mM KCl-ACSF (artificial cerebrospinal fluid) for 5 minutes and then returning them in normal ACSF for 5 minutes was performed three successive times to give a severe calcium load to the preparations. Variations in cytoplasmic and mitochondrial calcium concentrations at that time were measured.

[7] = system: mitochondrial calcium concentration; test: mitochondrial calcium concentration in brain slice preparations exposed to 80K ACSF, 24 h after subcutaneous administration; assay type: in vivo, mouse (C57B/6NL)
Description: as §1, §2, §3
FIG. 31A to FIG. 32C show the quantification results of the effects of β-NMN and Specimen 1 (TND1128) at each concentration. In FIG. 31A to FIG. 32C, FIG. 31A and FIG. 32A show the results of calculating a mitochondrial calcium concentration, as AUC (Area under the curve), for 35 minutes from 5 minutes after starting of the experiment by administration to three times exposure to 80K-ACSF and 5-minute washing (refer to FIG. 37). FIG. 31B. FIG. 31C, FIG. 32B and FIG. 32C show the drug effects on 5-minute 80K administration and 5-minute subsequent washing (1st: from 5 minutes to 15 minutes, 2nd: from 15 minutes to 25 minutes, and 3rd: from 25 minutes to 35 minutes) in the cerebral cortex (CTX) and the hippocampus (CA1), respectively (refer to FIG. 37). A significant difference test was performed using Tukey's method.

[8] = as printed in the method, b201, read-out: Kd

Compound: CCCCn1c2nc(=O)n(-c3ccccc3)c(=O)c-2cc2c1C=C1CC[C@H]3[C@@H]4CC[C@H](O)[C@@]4(C)CC[C@@H]3[C@@]1(C)C2
- melting point: 200 °C

Compound: C[C@]12CC[C@H]3[C@@H](CCC4=Cc5c(cc6c(=O)n(-c7ccccc7)c(=O)nc-6n5Cc5ccccc5)C[C@@]43C)[C@@H]1CC[C@@H]2O
- melting point: 224 °C

Compound: C[C@]12CC[C@H]3[C@@H](CCC4=Cc5c(cc6c(=O)n(-c7ccccc7)c(=O)nc-6n5-c5ccccc5)C[C@@]43C)[C@@H]1CC[C@@H]2O
- melting point: 257 °C

Compound: CCn1c2nc(=O)n(C)c(=O)c-2cc2c1C=C1CC[C@H]3[C@@H]4CC[C@H](O)[C@@]4(C)CC[C@@H]3[C@@]1(C)C2
- melting point: 260 °C (dec.)

Compound: Cn1c(=O)nc2n(Cc3ccccc3)c3c(cc-2c1=O)C[C@@]1(C)C(=C3)CC[C@H]2[C@@H]3CC[C@H](O)[C@@]3(C)CC[C@@H]21
- melting point: 215 °C

Compound: Cn1c(=O)nc2n(-c3ccccc3)c3c(cc-2c1=O)C[C@@]1(C)C(=C3)CC[C@H]2[C@@H]3CC[C@H](O)[C@@]3(C)CC[C@@H]21
- melting point: 215 °C (dec.)

Compound: CCCCn1c2nc(=O)n(C)c(=O)c-2cc2ccccc21 [Specimen 2]
- lipophilicity compared with Specimen 1 [1]: higher lipophilicity
- effectiveness on ATP production compared between specimens ([2]; 6 hours after administration): more effective than Specimen 1
- ATP production amount (intracellular ATP concentration vs without addition) ([2]; fluorescence measurement 6 hours after administration): significantly increased the ATP production amount

Compound: CCCCn1c2nc(=O)n(C)c(=O)c-2cc2c1C=C1CCC3C(CCC4(C)C(O)CCC34)C1(C)C2 (stereo not drawn) [Specimen 3, 8′-n-Butyl-5′-deaza-17β-hydroxy-3′-methylandrost-2,4-dieno[2,3-g]pteridine-2′,4′(3′H,8′H)-dione]
- decrease of 80K depolarization-induced increase in mitochondrial Ca2+ concentration, cortex and hippocampal neurons ([3]; 10 μg/kg i.p. pretreatment in vivo): markedly and at the maximum
- variations of mitochondrial Ca2+ concentration on 80K extracellular fluid, cerebral cortex neurons ([3]; 10 μg/kg i.p., slice made 22 hours after injection): suppression of the Ca^2+ concentration increase and a faster recovery from the Ca^2+ concentration increased by 80K depolarization can be observed
- dose at which the maximum inhibitory effect on mitochondrial Ca2+ concentration increase is attained, hippocampal neurons ([3]; i.p., 10 μg/kg and 10 mg/kg compared, n=3 slices): 0.01 mg/kg

Compound: CCn1c2nc(=O)n(C)c(=O)c-2cc2c(=O)n(C)c(=O)[nH]c21 [Specimen 5]
- number of branches of hippocampal neuron dendrite (AUC of dendrite crossings, t-test vs control) [4]: an effect on dendrite elongation is recognized

Compound: O=c1nc2n(-c3ccc(Cl)cc3)c3[nH]c(=O)n(-c4ccccc4)c(=O)c3cc-2c(=O)n1-c1ccccc1 [Specimen 6]
- number of branches of hippocampal neuron dendrite (AUC of dendrite crossings, t-test vs control) [4]: an effect on dendrite elongation is recognized

Compound: Cn1c2nc(=O)n(C)c(=O)c-2cc2c1C=C1CCC3C(CCC4(C)C(O)CCC34)C1(C)C2 (centres unmarked) [Specimen 7]
- number of branches of hippocampal neuron dendrite (AUC of dendrite crossings, t-test vs control) [4]: a statistically significant difference is recognized (p<0.05)

Compound: CCn1c2nc(=O)n(-c3ccccc3)c(=O)c-2cc2c1C=C1CCC3C(CCC4(C)C(O)CCC34)C1(C)C2 (stereo not drawn) [Specimen 8, 5′-Deaza-8′-ethyl-17β-hydroxy-3′-phenylandrost-2,4-dieno[2,3-g]pteridine-2′,4′(3′H, 8′H)-dione]
- number of branches of hippocampal neuron dendrite (AUC of dendrite crossings, t-test vs control) [4]: an effect on dendrite elongation is recognized

Compound: CC(C)CCCC(C)C1CCC2C3CCC4=Cc5c(cc6c(=O)n(C)c(=O)nc-6n5C)CC4(C)C3CCC12C (centres unmarked) [Specimen 9]
- number of branches of hippocampal neuron dendrite (AUC of dendrite crossings, t-test vs control) [4]: an effect on dendrite elongation is recognized

Compound: Cc1ccc(-n2c3nc(=O)n(C)c(=O)c-3cc3c2C=C2CCC4C(CCC5(C)C(C(C)CCCC(C)C)CCC45)C2(C)C3)cc1C (centres unmarked) [Specimen 10]
- number of branches of hippocampal neuron dendrite (AUC of dendrite crossings, t-test vs control) [4]: an effect on dendrite elongation is recognized

Compound: Cc1ccc(-n2c3nc(=O)n(-c4ccccc4)c(=O)c-3cc3c2C=C2CCC4C(CCC5(C)C(C(C)CCCC(C)C)CCC45)C2(C)C3)cc1C (centres unmarked) [Specimen 11]
- number of branches of hippocampal neuron dendrite (AUC of dendrite crossings, t-test vs control) [4]: a statistically significant difference is recognized (p<0.05)

Compound: CC(=O)OCOC(=O)CN(CC(=O)OCOC(C)=O)c1ccc(C)cc1OCCOc1cc(C2=c3cc4c5c(c3Oc3c2cc2c6c3CCCN6CCC2)CCC[N+]=5CCC4)ccc1N(CC(=O)OCOC(C)=O)CC(=O)OCOC(C)=O [Xrhod-1/AM]
- Kd [5, 8]: 700 µM

Compound: CC(=O)OCOC(=O)CN(CC(=O)OCOC(C)=O)c1cc(F)ccc1OCCOc1cc2cc(-c3ncc(C(=O)OCOC(C)=O)o3)oc2cc1N(CC(=O)OCOC(C)=O)CC(=O)OCOC(C)=O [fura-4F/AM]
- Kd [5, 8]: 770 µM
- Kd ([5]; read-out: Ca2+ chelating ability (Kd)): 0.77 µM

Compound: NC(=O)c1ccc[n+]([C@@H]2O[C@H](COP(=O)([O-])O)[C@@H](O)[C@H]2O)c1 [β-NMN, Nicotinamide mononucleotide, reference compound]
- effect on drastic increase in cytoplasmic Ca2+ concentration caused by 80K-ACSF ([6]; s.c. 24 h pretreatment): no significant effect
- quantified cytoplasmic Ca2+ (AUC), significant difference ([6]; s.c. 24 h pretreatment, all doses): a significant difference was not observed at concentrations other than that of the group administered with 10 mg/kg of β-NMN
- recovery of cytoplasmic calcium concentration variations at each 80K-ACSF administration ([6]; β-NMN 30 or 100 mg/kg, Specimen 1 0.01 to 1.0 mg/kg, s.c. 24 h): show similar recovery
- physiological response of the preparations under 80K-ACSF stimulation (mitochondrial and cytoplasmic Ca2+ variations) ([7]; 100 mg/kg β-NMN, 1 mg/kg Specimen 1): the preparations can maintain a markedly stable physiological response
- mitochondrial protective function / function stabilizing effect ([7]; 24 hours after administration): induces significant mitochondrial protective function
- mitochondrial calcium concentration as AUC, cerebral cortex (CTX) and hippocampus (CA1) ([7]; s.c. 24 h pretreatment, within the dose range studied, Tukey's method): a dose response relationship
- mitochondrial Ca2+ increase on three times 80K ACSF exposure (time course) ([7]; s.c. 24 h pretreatment, β-NMN 10, 30, 100 mg/kg, Specimen 1 0.01, 0.1, 1.0 mg/kg): dose-dependently suppress a mitochondrial Ca^2+ increase
